We go through five molecules from article PMC7357169, “Blinded, Multicenter Evaluation of Drug-induced Changes in Contractility Using Human-induced Pluripotent Stem Cell-derived Cardiomyocytes” (Toxicological Sciences, 2020).

“Also recorded” adds a separate entry of the source. Like-named read-outs stand apart in the source and are kept apart here.

The test system of data set [1] is R-PAT hiPSC-CMs. Description: CO:R-PAT contractility, refined conditions (RPMI-B27, slowed beat rate). It is filed as cell-based, human. As to conditions: analysis of different stages of relaxation; platform taken from context (CO:R-PAT). From the text: The hiPSC-CMs used were R-PAT (derived and differentiated in house as described previously) ([Mosqueira et al., 2018]; [Smith et al., 2018]), and iCell^2 and Pluricyte (purchased from Cellular Dynamics International and Ncardia). Manufacturer instructions were followed for the commercial hiPSC lines. For iCell^2, seeding was at 25 000 cells into each well of 96-well plates (Nunclon Delta Surface; Thermo, 167008) and then maintained for 10 days before use in drug evaluation studies. The same plates were used for R-PAT hiPSC-CMs, which were seeded at 40 000 cells/well and maintained until days 20 and 21 of differentiation before use. For Pluricyte hiPSC-CMs, seeding was at 35 000 cells into each well of 96-well plates (Greiner Bio-One; 655087) and then maintained for 8 days before use. […]
(§1) hiPSC-CMs in 96-well plate were transiently loaded in 50 µl/well of SFM containing FluoVolt (1:200 part B, 1:2000 part A; Life Tech, F10488) for 20 min at 37°C and 5% CO2. […] Electrophysiology data were analyzed using CellOPTIQ proprietary software of Clyde Biosciences and were normalized to a maximum amplitude of 1 and minimum of 0 to standardize height for comparison of traces created in OriginPro (OriginLab version 7.5). Contractility data were analyzed based on pixel displacement using an ImageJ plug-in. […]

The subject of another data set is cardiac contractility. As to conditions: cited from earlier work; for EC50: read-out: Expected effect on contractility in isolated cardiomyocytes/heart muscles, EC50; for NIE: ref (Perez et al. 1995), (Boldt et al. 2010), (Bois et al. 1996), (Mesirca et al. 2014), (Choi et al. 2016).
For data set [2] the following is noted: cited from earlier work; for FTPC: free therapeutic plasma concentration, Refs of Supplementary Table 1; for FPTC (free plasma therapeutic concentration): ref Supplementary Table 1.
The test system of another data set is hiPSC-CM EHTs. Description: EHT contractility with beat rate slowed by 300 nM ivabradine and electrical pacing 0.5-2.0 Hz. As to conditions: for CA response: EHTs with 300 nM ivabradine, paced, only at 0.5 and 0.7 Hz, sometimes at 1 Hz, never at 1.5 or 2 Hz, high concentration bolus. Format: cell-based, human. The method, then:
We extended these studies to the 3D EHT platform, this time slowing spontaneous beating to < 0.5 Hz with 300 nM ivabradine, a pharmacological blocker of the “funny” If current ([Bois et al., 1996]). […] Whereas force-frequency relationships was negative above 1.5 Hz, it was positive between 0.5 and 1.5 Hz, evidenced by a 147% increase in force generation concurrent with significant shortening of CT and RT (Supplementary Figure 6). We therefore re-evaluated 6 of the PIs in the presence of 300 nM ivabradine with electrical pacing at 0.5, 0.7, 1.0, 1.5, and 2.0 Hz. These also included epinephrine, levosimendan, and pimobendan, which had been incorrectly predicted by EHT:R-PAT and/or EHT:ERC platform-cell combinations. […] Thus, in both 2D and 3D configurations, lower beating frequencies led to increased predictivity for PIs.
Figure 5. Slowed beat rate increases the predictivity of positive inotropes (PIs) in 3D engineered heart tissues (EHTs). Contraction analysis was carried out using EHTs with 6 of the PIs from the drug test set: epinephrine (Epi), forskolin (For), levosimendan (Lev), pimobendan (Pim), dobutamine (Dob), and milrinone (Mil) which had been predicted with variable accuracy (Figure 4A, web tool). […] Scatter plots show percentage changes relative to baseline at respective frequency. Averaged peaks for force are shown for baseline (BL, black peaks) versus after treatment in EHTs paced at 0.5 Hz (blue peaks) or 2.0 Hz (red peaks). Dunnett’s stats versus baseline at respective frequency: *p < .05; **p < .01; ***p < .001; ****p < .0001.
Supplementary Figure 6. Positive force frequency relationship in EHTs paced between 0.5 and 1.5 Hz. Spontaneous beat rate of EHTs was reduced by 3 hour pre-treatment with 300 nM ivabradine, an If current inhibitor. […] CA increased from 0.5 to 1.5 Hz but plateaued and declined at higher frequencies. These changes were reflected in the CT and RT data. Dunnett's stats vs vehicle control: *, P<0.05; **, P<0.01; ***, P<0.001; ****, P<0.0001.

The next data set deals with ERC18 hiPSC-CM EHTs. As to conditions: EHT:ERC.
The subject of the next data set is heart. Also on record: method as in Refs column of Supplementary Table 1. As to conditions: Refs of Supplementary Table 1; cited from earlier work.
A further data set deals with hiPSC-CMs. Description: CellOPTIQ voltage (FluoVolt) analysis, hiPSC-CMs. Format: cell-based, human. The method, then:
as §1, with “CO2. After incubation, the medium was replaced with 200 μl/well of SFM. Plates were then incubated at 37°C and 5% CO2 for 15 min before recording, which were made using a ×40 (NAO.6) objective at 10 KHz.” for “CO2.”
Action potential duration (APD30, APD90) and triangulation (APD90–APD30) were calculated from voltage waveforms to determine whether electrophysiology was altered, including the appearance of arrhythmias. For Ca^2+ handling, amplitude, time to peak, and decay time were assessed, whereas similar parameters (contraction amplitude [CA], contraction time [CT], and relaxation time [RT]) were derived for contraction (Supplementary Figure 2). […]

The subject of data set [3] is R-PAT hiPSC-CMs. Description: CO:R-PAT contractility after 24 h exposure.
Text: We asked whether longer term exposure would affect contractility (Supplementary Figure 7).
Prolonged exposure detects NIs in 2D and 3D cultures of hiPSC-CMs. […] CA is shown normalized to time controls.
Data set [4] has as its system adult rabbit ventricular cardiomyocytes. Description: CellOPTIQ (CO) contractility, adult rabbit ventricular cardiomyocytes. Format: cell-based. The following applies: isolated rabbit myocytes; not reported in any hiPSC-CM platform. The protocol: Hearts were removed and perfused retrogradely at 25 ml⋅min^−1 (37°C) with a modified KH solution containing 0.75 mmol/l [Ca^2+] for 5 min, followed by a nominally Ca^2+-free KH solution with 0.1 mmol/l EGTA for 5 min. Hearts were then perfused with KH solution containing 0.24 mmol/l [Ca^2+], 1 mg/ml collagenase (type I), and 0.06 mg/ml protease (type XIV). After approximately 4–5 min, enzyme was removed and the left ventricular free wall was then cut into strips in the recirculated enzyme solution containing 1% bovine serum albumin before being mixed to yield a single cell suspension. Cells were maintained in either Ca^2+-free KH solution or 1 mmol/l Ca^2+ (via stepwise increments) until use. Intact cardiomyocytes in 1.8 mmol/l modified Ca^2+ KH solution were loaded with FluoVolt (Thermo Fisher Scientific) at 1:3000 dilution for 10 min. The incubation medium was removed and the cells resuspended in a modified KH solution.
Cardiomyocytes were allowed to settle on a coverslip in a bath (35 mm petri-dish) at 37°C. […] A parallel set of vehicle (DMSO) time control experiments were also performed FluoVolt fluorescence (490 nm excitation) was measured at a sampling rate of 10 KHz, whereas the image was recorded on a CCD camera at 100 Hz frame rate using > 700 nm light. […]

Setting [5] is: isolated cardiomyocytes/heart muscles, Refs of Supplementary Table 1.

Experimental for ERC18 hiPSC-CM EHTs: For long-term contractility analysis of sunitinib, hiPSC-CM EHTs were equilibrated to regular cell culture medium without serum (DMEM, Biochrom F0415; penicillin/streptomycin 1% [volume/volume], Gibco 15140; aprotinin 5 µM, Sigma-Aldrich A1153; insulin 1.7 µM, Sigma-Aldrich I9278; glutamine 2000 µM, Gibco 25030-081; triiodothyronine 0.77 nM, European Commission-Joint Research Center IRMM-469; hydrocortisone 137 µM: Sigma-Aldrich H0888). Medium change, drug addition and video-optical contractility analysis was performed daily and contraction data was normalized to time control.
The EHT:ERC platform-cell combination was exposed to 100 µM doxorubicin (C) or 1 µM sunitinib (D) for up to 17.5 hr (C) or up to 8 days (D). CA is shown normalized to time controls.

With `CC(CCc1ccc(O)cc1)NCCc1ccc(O)c(O)c1` (centres unmarked) [Dobutamine], the “relaxation analysis at 50% relaxation” value with R-PAT hiPSC-CMs [1] is given as “positive lusitropy”. For the same molecule, in the data set with cardiac contractility (setting [5]), the EC50 was 1 to 3 µM. Besides, in [2], the FTPC was 0.07 to 1 µM and the “FPTC (free plasma therapeutic concentration)” value is 0.07 to 1 µM. Also, the CA response result with hiPSC-CM EHTs was “increased contraction amplitude”.
For the molecule `COc1cccc2c1C(=O)c1c(O)c3c(c(O)c1C2=O)C[C@@](O)(C(=O)CO)C[C@@H]3O[C@H]1C[C@H](N)[C@H](O)[C@H](C)O1` [Doxorubicin], the “time after which EHT contraction ceased” value with ERC18 hiPSC-CM EHTs (100 µM doxorubicin) is listed as 17.5 h. Besides, the “Expected cardiac effects in vivo” value in the data set with heart was “NI, time course of cardiotox dose-dependent”. Moreover, in the data set on cardiac contractility (setting [5]), the “Expected effect on contractility in isolated cardiomyocytes/heart muscles” value is “PI+NCl and reduced post-rest potentiation at 30 µM (GP), but strong NI at 1000 µM (GP, rat); rate-dependent”. Besides, the reported inotropic effects entry in the data set on cardiac contractility (ref Kim et al., 1980, Vanboxtel et al., 1978, Wang and Korth, 1995) is given as “transient positive inotropy is followed by robust negative inotropy at higher concentrations”. The “electrophysiology after 30 min exposure” value with hiPSC-CMs is “altered electrophysiology; also recorded: changes in electrophysiology”. In [2], the FTPC was 1 to 2 µM and the “FPTC (free plasma therapeutic concentration)” value was 1 to 2 µM. In the data set with R-PAT hiPSC-CMs [3] (1 to 30 µM, increased CA, decreased CT), the “inotropy trend with 24 h treatment” value was “trend of positive inotropy”. Besides, the “effect of exposure to the highest concentration for 24 h” value with R-PAT hiPSC-CMs [3] is “loss of contraction and cell death”.
Take `C=C[C@@]1(C)CC(=O)[C@]2(O)[C@@]3(C)[C@@H](O)CCC(C)(C)[C@@H]3[C@H](O)[C@H](OC(C)=O)[C@@]2(C)O1` [Forskolin]: the “spontaneous diastolic SR Ca2+ release” value in [4] is “spontaneous diastolic Ca^2+ release and associated diastolic shortening was observed”. The “Expected cardiac effects in vivo” value in the data set on heart is on record as “PI, PC”. For the same molecule, the EC50 in the data set on cardiac contractility (setting [5]) is 5 to 10 µM. Besides, in data set [2], the FTPC is 0.012 to 0.024 µM and the “FPTC (free plasma therapeutic concentration)” value was 0.012 to 0.024 µM. Also, in the data set with hiPSC-CM EHTs, the CA response result is “increased contraction amplitude”.
On to `COc1cc2c(cc1OC)CC(=O)N(CCCN(C)C[C@H]1Cc3cc(OC)c(OC)cc31)CC2` [Ivabradine], for which the “relaxation analysis at 80% relaxation” value in the data set on R-PAT hiPSC-CMs [1] is listed as “late relaxation deficit”. Also, the NIE in the data set with cardiac contractility (guinea pig PM, at 100 µM) is on record as -60%; with cardiac contractility (guinea pig atria, at 100 µM), -13%; with cardiac contractility (human trabeculae at 100 µM), -38%. Also, in the data set with cardiac contractility (setting [5]), the “Expected effect on contractility in isolated cardiomyocytes/heart muscles” value was “None, NC at >10 µM (spontaneously beating preps), NIE (-13/-60% in guinea pig atria/PM, -38% human trabeculae at 100 µM); PI in mouse left atria and 30% of human trabeculae”. For the same molecule, in [2], the FTPC was 0.01 to 0.1 µM. The “FPTC (free plasma therapeutic concentration)” value in [2] was 0.01 to 0.1 µM. Moreover, in the data set on hiPSC-CM EHTs (300 nM ivabradine), the “spontaneous beating of EHTs” value is given as less than 0.5 Hz.
As to `CCN(CC)CCNC(=O)c1c(C)[nH]c(/C=C2\C(=O)Nc3ccc(F)cc32)c1C` [Sunitinib], in the data set with ERC18 hiPSC-CM EHTs (1 µM sunitinib, normalized to time controls), the “CA over a 7-day period” value is “decline in CA”. Further, the “Expected cardiac effects in vivo” value in the data set on heart was “NI, NC at high doses, chronic cardiotox”. Besides, in the data set on cardiac contractility (negative inotropy, isolated cardiomyocytes/heart muscles, Refs of Supplementary Table 1, read-out: Expected effect on contractility in isolated cardiomyocytes/heart muscles, IC50), the IC50 was 10 µM. Moreover, the “electrophysiology after 30 min exposure” value with hiPSC-CMs is “altered electrophysiology”. Besides, in [2], the FTPC is 0.003 µM and the “FPTC (free plasma therapeutic concentration)” value is 0.003 µM. Also, the “effect of exposure to the highest concentration for 24 h” value in the data set with R-PAT hiPSC-CMs [3] was “loss of contraction and cell death”.
